pEC50, pIC50: −log10 of the molar value. “Also recorded” adds a separate entry of the source. Read-outs that look alike come from different tables or passages of the source.
How the values were obtained:
human CAR (hCAR) [1] = target: T1, human CAR (hCAR) (Homo sapiens, UniProt Q14994); experiment: hCAR luciferase reporter qHTS, antagonist mode (HepG2-CYP2B6-hCAR cells, CITCO co-treatment); conditions: antagonist mode;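 further: stable HepG2 line carrying hCAR plus a CYP2B6 promoter (PBREM/XREM) luciferase reporter, 1536-well format, 24 h compound exposure at 37 °C, then luminescence read with ONE-Glo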
T1 sequence (Q14994 1-348 isoform Q14994-2): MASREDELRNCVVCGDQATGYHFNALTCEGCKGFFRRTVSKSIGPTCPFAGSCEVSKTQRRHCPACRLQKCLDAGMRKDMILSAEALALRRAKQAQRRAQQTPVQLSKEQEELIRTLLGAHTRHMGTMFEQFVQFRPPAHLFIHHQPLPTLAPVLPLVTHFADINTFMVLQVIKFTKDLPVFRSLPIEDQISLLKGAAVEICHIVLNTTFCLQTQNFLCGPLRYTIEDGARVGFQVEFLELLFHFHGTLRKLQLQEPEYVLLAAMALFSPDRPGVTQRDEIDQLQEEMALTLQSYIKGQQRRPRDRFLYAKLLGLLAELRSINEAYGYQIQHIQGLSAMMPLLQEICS

[2] = Cell viability assay (CellTiter-Glo ATP quantitation); format: cell-based, human; parameters: key to Cytotoxicity (activity call): Inactive: considered inactive if efficacy is less than 30%; conditions: human, HepG2-CYP2B6-hCAR cells, read-out: Cytotoxicity Potency
Method: (§1) The potential cytotoxicity of the NPC compounds in HepG2-CYP2B6-hCAR cells was measured using a luciferase-coupled ATP quantitation assay (CellTiter-Glo viability assay, Promega). The change of intracellular ATP content indicates the number of metabolically competent cells. The cells were seeded at 2,500 cells/5 μl in 1536-well plates and were exposed to each test compound at concentrations and treatment duration as previously mentioned. The assay plates were incubated for 24 h at 37 °C, followed by the addition of 4 μl/well of CellTiter-Glo reagent. After 30 min incubation at RT, the luminescence intensity of the plates was measured using a ViewLux plate reader.

HepG2-CYP2B6-hCAR cells = experiment: as above; format: cell-based, human; parameters: key to Cytotoxicity (activity call): Inactive: considered inactive if efficacy is less than 30%; conditions: 24 h
Method: as §1

CYP3A4 = CYP3A4 mRNA expression in HPH (real-time PCR); format: cell-based, human; conditions: for Effect on CYP3A4 mRNA expression: HPH, 24 h, vs vehicle control (0.1% DMSO)
[3] = test system: human primary hepatocytes; experiment: MTT cytotoxicity assay in HPH; format: cell-based; conditions: 1 μM, 24 hours, donor HL-104
Method: Figure S1. […] Human primary
was carried out following the manufacturer’s instruction. Data represent the mean ± SD (n =3).
(1 picture or pasted object on this page, not shown here)

CYP2B6 = CYP2B6 mRNA expression in HPH (real-time PCR); conditions: for Effect on CYP2B6 mRNA expression / Induction of hCAR target genes: HPH; for Effect on CYP2B6 mRNA expression: 24 h, vs vehicle control (0.1% DMSO); for Induction of hCAR target genes: target genes CYP2B6 and CYP3A4
hPXR = target: T2, hPXR (Homo sapiens, UniProt O75469); experiment: Transient hPXR luciferase assay in HepG2 cells (CYP2B6-2.2 kb reporter); format: cell-based
T2 construct: expressed in transfected cells; host or cells: HepG2 (transient transfection)
T2 sequence (O75469 1-434): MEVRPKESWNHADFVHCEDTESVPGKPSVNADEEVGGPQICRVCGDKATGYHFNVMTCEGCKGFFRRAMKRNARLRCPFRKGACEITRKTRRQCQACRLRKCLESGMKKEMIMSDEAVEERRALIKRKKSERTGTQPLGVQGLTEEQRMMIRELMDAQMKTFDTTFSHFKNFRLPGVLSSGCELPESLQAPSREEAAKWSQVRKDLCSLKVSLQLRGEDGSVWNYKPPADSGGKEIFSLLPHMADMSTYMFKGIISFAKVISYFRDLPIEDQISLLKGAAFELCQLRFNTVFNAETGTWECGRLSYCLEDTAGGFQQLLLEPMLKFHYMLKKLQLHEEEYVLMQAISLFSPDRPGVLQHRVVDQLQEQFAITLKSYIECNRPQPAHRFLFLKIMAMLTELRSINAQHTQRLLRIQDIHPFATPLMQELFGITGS
Method: HepG2 cells cultured in a 24-well plate were co-transfected with the CYP2B6-2.2 kb reporter and hPXR expression vectors using a Lipofectamine® 2000 Transfection Kit (Life Technologies) following the manufacturer’s instruction. […] Cell lysates were assayed for firefly luciferase activities normalized against the activities of co-transfected Renilla luciferase using a Dual-Luciferase Kit (Promega). Data were represented as mean±SD of three individual transfections.

[4] = test system: CYP2B6 and CYP3A4 proteins; experiment: Immunoblotting of CYP2B6 and CYP3A4 proteins in HPH; format: cell-based, human; conditions: immunoblotting (Fig. 3C)
Method: Homogenate proteins (30 μg) from treated HPH were resolved on an SDS polyacrylamide gel and electrophoretically transferred onto Immobilon-P polyvinylidene difluoride membranes and blocked using 5% blotting-grade blocker (nonfat dry milk, Bio-RAD). Subsequently, membranes were incubated with specific antibodies against CYP2B6 (1:200), CYP3A4 (1:5000), and β-actin (1:50,000) diluted in 1% blotting-grade blocker. β-Actin was used to normalize protein loadings. Membranes were washed using 1x Tris buffered saline–Tween 20 (Bio-RAD) and incubated with horseradish peroxidase goat anti-rabbit IgG antibody diluted at 1:5000, and developed using ECL Western blotting detection reagent (Thermo-Scientific Inc).

CAR, CYP2B6, or CYP3A4 = conditions: previously known; reference not given; cited from earlier work
human CAR (hCAR) [5] = target: T1, human CAR (hCAR); experiment: hCAR luciferase reporter qHTS, agonist mode (HepG2-CYP2B6-hCAR cells, PK11195 co-treatment); conditions: agonist mode; for Follow-up Confirmation Efficacy: relative to CITCO (100%); for Primary Screen Efficacy: relative to CITCO Emax (100%)
human CAR (hCAR) [6] = target: T1, human CAR (hCAR)
EYFP-hCAR = target: T3, EYFP-hCAR (Homo sapiens, UniProt Q14994); experiment: Nuclear translocation of Ad/EYFP-hCAR in human primary hepatocytes; format: cell-based; conditions: HPH
T3 construct: expressed in transfected cells; host or cells: human primary hepatocytes infected with Ad/EYFP-hCAR
T3 sequence (Q14994 1-348 isoform Q14994-2): T1 sequence (Q14994 1-348 isoform Q14994-2)
Method: A recombinant adenovirus expressing enhanced yellow fluorescent protein-tagged hCAR (Ad/EYFP-hCAR) was generated as described previously. Hepatocytes cultured in 96-well collagen-coated plates in serum free Williams’ E medium were infected with Ad/EFYP-hCAR (1 μl/well) for 12 h before treatment with the vehicle control, DMSO (0.1%), PB (1 mM), and selected compounds for another 8 h. Subcellular localization of hCAR was visualized using a Nikon (Tokyo, Japan) C1-LU3 instrument based on an inverted Nikon Eclipse TE2000 microscope.

human CAR (hCAR) [7] = target: T1, human CAR (hCAR); remark: listed apart in the source
[8] = Follow-up Confirmation Potency (IC50), follow-up cherry-pick, 11-point titration
[9] = Primary Screen Potency (IC50), primary qHTS, 0.1 μM CITCO, 24 h
[10] = HPH donor HL-104, 24 h, daunorubicin 1, 2.5 and 5 µM, bortezomib 0.1, 0.5, and 1 µM
[11] = Follow-up Confirmation Potency (EC50), follow-up cherry-pick, 11-point titration
[12] = Primary Screen Potency (EC50), primary qHTS, 2.5 μM PK11195, 24 h

## CC(C)C[C@H](NC(=O)[C@H](Cc1ccccc1)NC(=O)c1cnccn1)B(O)O [Bortezomib]
Human CAR (hCAR) [1]; [8]
  pIC50: 7.52
Human CAR (hCAR) [1]; [9]
  pIC50: 7.70
Human CAR (hCAR) [1]; primary qHTS, relative to PK11195 (100%)
  Primary Screen Efficacy: -103%
[2]
  IC50 at 24 h: 1.25 µM
HepG2-CYP2B6-hCAR cells
  Cytotoxicity Efficacy: -57%
CYP3A4; [10]
  Concentration-dependent effect on CYP3A4 mRNA expression: marked and concentration-dependent repression
[3]
  Cytotoxicity in HPH (MTT): not associated with significant cytotoxicity
CYP2B6; [10]
  Concentration-dependent effect on CYP2B6 mRNA expression: marked and concentration-dependent repression
CYP2B6
  Effect on CYP2B6 mRNA expression: most potent repressors of CYP2B6

## CC(C)=CCOc1c2occc2cc2ccc(=O)oc12 [Imperatorin]
hPXR
  hPXR activation: moderately activated hPXR
CYP3A4
  Effect on CYP3A4 mRNA expression: marginal effect; also recorded: only marginally increased
[4]
  Induction of CYP2B6 and CYP3A4 at the protein level: preferential induction of CYP2B6 over CYP3A4
CAR, CYP2B6, or CYP3A4
  Known modulator of CAR, CYP2B6, or CYP3A4?: Cyp2b10 inducer
Human CAR (hCAR) [5]; [11]
  pEC50: 4.85
Human CAR (hCAR) [5]; [12]
  pEC50: 4.97
Human CAR (hCAR) [6]
  Follow-up Confirmation Efficacy: 238%
  Primary Screen Efficacy: 146%

## NNCCc1ccccc1 [Phenelzine]
CYP2B6
  Induction of hCAR target genes: negligible induction
CYP2B6; listed as phenelzine
  Induction of hCAR target genes: nor induced the expression of its target genes
EYFP-hCAR
  hCAR nuclear translocation (in words): didn’t translocate hCAR
EYFP-hCAR; listed as phenelzine
  hCAR nuclear translocation (in words): neither translocated hCAR
CAR, CYP2B6, or CYP3A4
  Known modulator of CAR, CYP2B6, or CYP3A4?: CYP3A4 weak inhibitor
Human CAR (hCAR) [5]; [11]
  pEC50: 4.80
Human CAR (hCAR) [5]; [12]
  pEC50: 4.82
Human CAR (hCAR) [5]; follow-up cherry-pick
  Follow-up Confirmation Efficacy: 70%
Human CAR (hCAR) [5]; primary qHTS
  Primary Screen Efficacy: 145%

## C[C@@H]1O[C@@H](O[C@H]2C[C@@H](O)[C@]3(CO)[C@H]4[C@H](O)C[C@]5(C)[C@@H](C6=CC(=O)OC6)CC[C@]5(O)[C@@H]4CC[C@]3(O)C2)[C@H](O)[C@H](O)[C@H]1O [Ouabain]
Human CAR (hCAR) [1]; [8]
  pIC50: 6.33
Human CAR (hCAR) [1]; [9]
  pIC50: 6.52
HepG2-CYP2B6-hCAR cells
  Cytotoxicity (activity call): Inactive
Human CAR (hCAR) [7]
  Follow-up Confirmation Efficacy: 0.47 (-99%)
  Primary Screen Efficacy: 0.30 (-104%)

## O=c1cc(-c2ccccc2)oc2ccccc12 [Flavone]
hPXR; data not shown
  hPXR activation: moderately activated hPXR
CYP3A4
  Effect on CYP3A4 mRNA expression: marginal effect; also recorded: only marginally increased
CYP2B6
  Effect on CYP2B6 mRNA expression: significantly induced; also recorded: markedly induced
[4]
  Induction of CYP2B6 and CYP3A4 at the protein level: preferential induction of CYP2B6 over CYP3A4
CAR, CYP2B6, or CYP3A4
  Known modulator of CAR, CYP2B6, or CYP3A4?: Dietary flavonoids activate CAR
Human CAR (hCAR) [5]; [11]
  pEC50: 4.49
Human CAR (hCAR) [5]; [12]
  pEC50: 4.47
Human CAR (hCAR) [5]; follow-up cherry-pick
  Follow-up Confirmation Efficacy: 200%
Human CAR (hCAR) [5]; primary qHTS
  Primary Screen Efficacy: 184%

## CCCCc1ccc(O)cc1 [4-butylphenol]
Human CAR (hCAR) [7]
  Identified as hCAR antagonist/deactivator in the qHTS: recognized in the current study

## COc1cccc2c1C(=O)c1c(O)c3c(c(O)c1C2=O)C[C@@](O)(C(C)=O)C[C@@H]3O[C@H]1C[C@H](N)[C@H](O)[C@H](C)O1 [Daunorubicin]
hPXR; HepG2, 24 h, in the presence or absence of rifampicin (10 μM)
  Effect on basal and RIF-induced PXR activity: only repressed RIF-induced PXR activity
[2]
  IC50 at 24 h: 15.9 µM
HepG2-CYP2B6-hCAR cells
  Cytotoxicity Efficacy: -43%
CYP2B6
  Effect on CYP2B6 mRNA expression: most potent repressors of CYP2B6

## Nc1ccc(Cl)cc1C(=O)c1ccccc1F [2-Amino-5-chloro-2’-fluorobenzophenone]
CYP2B6; listed as ACFB
  Induction of hCAR target genes: negligible induction; also recorded: nor induced the expression of its target genes
EYFP-hCAR; listed as ACFB
  hCAR nuclear translocation (in words): didn’t translocate hCAR; also recorded: neither translocated hCAR
Human CAR (hCAR) [5]; [11]
  pEC50: 4.81
Human CAR (hCAR) [5]; [12]
  pEC50: 5.47
Human CAR (hCAR) [5]; follow-up cherry-pick
  Follow-up Confirmation Efficacy: 67%
Human CAR (hCAR) [5]; primary qHTS
  Primary Screen Efficacy: 60%

## CN1CCc2cccc3c2[C@H]1Cc1ccc(O)c(O)c1-3 [Apomorphine]
CYP2B6
  Induction of hCAR target genes: negligible induction; also recorded: nor induced the expression of its target genes
EYFP-hCAR
  hCAR nuclear translocation (in words): didn’t translocate hCAR; also recorded: neither translocated hCAR
Human CAR (hCAR) [5]; [11]
  pEC50: 4.88
Human CAR (hCAR) [5]; [12]
  pEC50: 4.72
Human CAR (hCAR) [5]; follow-up cherry-pick
  Follow-up Confirmation Efficacy: 38%
Human CAR (hCAR) [5]; primary qHTS
  Primary Screen Efficacy: 21%
